From patent US20260357349A1, “METHODS OF IDENTIFYING AND TREATING CANCER” (Agency for Science, Technology and Research, priority 2022, published 2026) come the findings set out here.

For test [1], the system named is RELA occupancy on the chromatin (786-O cells). Nature of the test: RELA ChIP after bortezomib, 786-O. Type of test: cell-based, human. How it is done: (§1) Colony formation of parental (WT) or PBRM1 knockout (KO) 786-O cells expressing shRNA against non-targeting control (NC), RELA, or NFKB1 cultured with a) 10% or b) 2% serum. c) Gene expression changes of NF-κB target genes in 786-O cells treated with 0.006 μM bortezomib (BTZ) or 0.6 µM Bay 11-7085 for 24 hours (n=3 technical replicates). * p-value<0.05 (two-sided t-test). […] A positive log fold change refers to gain in bortezomib treatment over DMSO. g) Colony formation of 786-O isogenic cells and h) NCC432 isogenic cells treated with bortezomib for a week. Tumor formation of isogenic 786-O cells (i) and NCC432 cells (j) treated with PBS control or 0.5 mg/kg bortezomib (BTZ) in NSG mice. (n=10 tumors per group for 786-O, and n=16 tumors for NCC432 PBS EV group and 12 tumors for NCC432 PBS PBRM1 group and 14 tumors for both NCC432 EV and PBRM1 BTZ groups). Data are presented as mean values+/−SEM. k) Model for the study.
Data are presented as median+/−25%. Lower whisker is smallest observation greater than or equal to 25% quantile-1.5*interquantile range (IQR). Upper whisker represents the largest observation less than or equal to 75%+1.5*IQR. Amount of normalized RELA protein in the c) input or d) co-immunoprecipitated with SMARCA4 from 3 independent runs. […]

For the next test, the system named is NCC432 cells. Nature of the test: Colony formation, NCC432 isogenic cells. The test is classed as cell-based, human. Particulars: NCC432, a week. How it is done: as §1
In 6 wells, 1,000 786-O cells or 2,500 NCC432 cells were seeded and treated with DMSO control or increasing concentration of drugs for 7 days and stained with crystal violet. For drug screening, we used SGC epigenetic probe collection. For RNA-seq with bortezomib treatment, 2×10^5 786-O cells were treated with DMSO or 0.005 μM bortezomib and harvested 9 hours after treatment for RNA extraction. […]

Another test has as its system NCC432 tumors. Briefly: Tumor formation and survival of NSG mice bearing NCC432 isogenic cells. The test is classed as in vivo. How it is done: as §1
Data are presented as median+/−25%. Lower whisker is smallest observation greater than or equal to 25% quantile-1.5*interquantile range (IQR). Upper whisker represents the largest observation less than or equal to 75%+1.5*IQR. Amount of normalized RELA protein in the c) input or d) co-immunoprecipitated with SMARCA4 from 3 independent runs. Data are presented as mean values+/−SD. e) Tornado plots of RELA and SMARCA4 ChIP-seq signals in parental 786-0 or PBRM1-KO 786-O cells treated with DMSO or 0.005 μM bortezomib for 9 hours. f) Kaplan-Meier curves of NSG mice bearing 786-O isogenic cells treated with PBRM1 control or 0.5 mg/kg bortezomib (WT: n=10 PBS arm, median survival=39 days; n=10 bortezomib arm, median survival=52 days, HR=4.1, p=3E-6, log rank test; KO: n=10 PBS arm, median survival=35 days, n=10 bortezomib arm, median survival=66 days, HR=4.1, p=3E-6, log rank test). g) Kaplan-Meier curves of NSG mice bearing NCC432 isogenic cells treated with PBRM1 control or 0.5 mg/kg bortezomib (EV: n=16 PBS arm, median survival=42 days; n=14 bortezomib arm, median survival=49 days, HR=2.5, p=0.0009, log rank test; PBRM1: n=12 PBS arm, median survival=55 days; n=14 bortezomib arm, median survival=58 days, HR=1.2, p=0.5, log rank test). h) 786-O PBRM1 WT or KO cells were screened against the high-specific SGC epigenetic probe collection and cell viability was measured by colony formation after 1 week of treatment relative to DMSO control.
All animal studies were conducted in compliance with animal protocols approved by Institutional Animal Care and Use Committee (IACUC) of Singapore. Female NOD/SCID mice (8-10 week old) were implanted subcutaneously with 1×10^6 786-0 cells with either wildtype PBRM1 or PBRM1 knocked out subcutaneously. Male NSG mice (The Jackson laboratory) were implanted with 1×10^6 A498, NCC2112 or NCC432 with or without PBRM1. Tumor volume was monitored every 3-4 days. Tumor volume was calculated as (length×width×width)×π/6. Animals were sacrificed when the tumor volume exceeded 2000 mm^3.
Bortezomib […] was given twice weekly (day1, day 4) to male NSG mice (The Jackson laboratory) via the tail vein. Tumor volume and body weight were monitored every 3-4 days.

For `CC(C)C[C@H](NC(=O)[C@H](Cc1ccccc1)NC(=O)c1cnccn1)B(O)O` [bortezomib], the “RELA occupancy (figure title)” value in test [1] (786-O, 0.005 μM bortezomib, 9 hours) is “abrogates RELA occupancy”. Further, the “RELA occupancy on the chromatin, PB1 KO” value in test [1] (PB1 KO 786-O cells, ChIP-qPCR) is recorded as “profound reduction of RELA occupancy”. The “reduction of colony formation, PB1-deficient vs PB1-proficient isogenic cells” value with NCC432 cells is given as “preferential reduction of colony formation”. Further, in the test with NCC432 tumors (0.5 mg/kg bortezomib), the “survival, mice bearing PB1-deficient vs PB1-proficient cells” value was “survived for a longer duration”. In addition, the “tumor response, PB1-deficient vs PB1-proficient isogenic cells” value in the test with NCC432 tumors (0.5 mg/kg bortezomib, NSG mice) is recorded as “responded better”. The median survival came out at 49 days in the test on NCC432 tumors (NCC432 EV, 0.5 mg/kg bortezomib arm n=14, PBS arm 42 days) and 58 days with NCC432 tumors (NCC432 PBRM1, 0.5 mg/kg bortezomib arm n=14, PBS arm 55 days). For the same molecule, the HR with NCC432 tumors (NCC432 EV, bortezomib vs PBS, p=0.0009, log rank test) was determined as 2.5; with NCC432 tumors (NCC432 PBRM1, bortezomib vs PBS, p=0.5, log rank test), 1.2.
